Legend:
[1] = In vivo toxicity after subcutaneous injection of hydrogels (serum ALT, AST, LDH); design: species or system OF-1 female mice; conditions: hydrogels injected subcutaneously in mice, serum markers up to day 21
Method: (§1) 10-week-old OF-1 female mice (Charles Rivers, France) were used for this study. Before the bilateral subcutaneous injection of hydrogels, mice were anaesthetized using 4.5% isoflurane gas and maintained throughout surgery at 2.5% isoflurane with a face mask. The animals were depilated before surgery. The three different hydrogels were prepared as mentioned above and collected in 1 ml syringes, when the solution was in viscous form. The hydrogels were injected subcutaneously by 21-gauge needle on the dorsal side of the animals.
The in vivo toxicity of the hydrogels formed from compounds 17, 20 and GNF was investigated by serum biochemical evaluation such as alanine aminotransferase (ALT Activity Assay Kit, Sigma-Aldrich, ref MAK052), aspartate aminotransaminase (AST Activity Assay Kit, Sigma-Aldrich, ref MAK055), and lactate dehydrogenase (LDH Assay Kit, Abcam, ref ab102526). At day 0 before surgery and three-time points after implantation (3, 7, and 21 days), blood was collected from retro-orbital sinus. The blood samples were allowed to clot then followed by centrifugation to collect the serum. The serum was used for analysis as recommended by the manufacturers.

blood vessels = assay: In vivo angiogenesis around subcutaneously injected hydrogels (CD31 immunostaining, blood vessel count); conditions: hydrogel injected subcutaneously in mice, day 21, CD31 immunostaining, four random regions
Method: as §1
Subcutaneous injection was carried out, as indicated in example 3, in order to characterize the behavior of the hydrogels after subcutaneous injection and in situ gelation. Animals were sacrificed by cervical dislocation one or three weeks after injection of the hydrogel. The biomaterials (i.e. hydrogel) together with the skin surrounding the injection point were harvested after 7, or 21 days and embedded in paraffin. Histological sections of skin portions associated to the hydrogel were then stained to assess the degradation pattern, cell infiltration (data not shown) and angiogenesis.
The blood vessels in and around the hydrogels 21 days after implantation were identified by immunolabelling with rabbit anti-CD31 antibody (Abcam, ref ab28364 dilution:1/100) followed by incubation with HRP-conjugated anti-rabbit secondary antibody (Vector MP-7401, dilution:1/2)
During the regeneration process, the development of neovessels in the remodeling tissue is of major importance. Therefore, immunostaining of CD31, an endothelial cell marker, was performed on day 21 to assess angiogenesis.
CD31 positive cells were not found inside the hydrogels, showing that the non-degraded hydrogels were bad substrates for blood vessel ingress. Figure 11B depicts the quantification of blood vessels counted manually per 0.2mm^2 at four different random regions in the tissue surrounding each hydrogel. […]

[2] = test system: CAM of chick embryos (Gallus gallus); assay: Chick chorioallantoic membrane (CAM) angiogenesis assay; assay type: in vivo; conditions: 20 µl of 500 µg/ml in DMEM on day 13 and 14, evaluated day 17, versus DMEM control
Method: The angiogenesis assay was performed on the CAM of chick embryos (Gallus gallus) (E.A.R.L. Morizeau, Dangers, France). Embryos were incubated at 37°C and 70% humidity to […]. On day 3 of development, 3-5 ml of egg white was withdrawn by punctuating the air chamber with the syringe, and a window was made by cutting the eggshell and sealed with Durapore® tape. On day 13, prepared plastic rings (made from Nunc Thermanox® coverslips, diameter 13 mm and thickness 0.2mm) were placed on the intact CAM. 20 µl of the molecule (concentration 500 µg/ml in DMEM medium) or an equivalent volume of DMEM alone as control were deposited in the center of the plastic rings. The treatment was repeated the following day followed by photo documentation (day 14). On day 17, the eggs were fixed by addition of 2 ml of 4% paraformaldehyde (Antigenfix) for 30 min at room temperature. Imaging was performed with a stereomicroscope (Nikon SMZ800) using a digital camera (Nikon Coolpix 950). The images were scored for morphological changes of blood capillaries such as sprouting and tortuosity (0=normal, 1=overrepresented) by five observers using a blinded screening test (data not shown).
The angiogenic response was evaluated on day 17 based on two morphological parameters: sprouting, and presence of tortuous vessels (data not shown). […]

[3] = In vitro degradation of the hydrogels (weight loss in PBS); assay type: physicochemical; conditions: hydrogel 1.5% (w/v), PBS 1X, after 3 weeks at 37°C
Method: Hydrogels were prepared with compound 17, compound 20, GNF at a concentration of 1.5% (w/v) by dissolving the powder in sterile phosphate buffered saline solution (PBS 1X, pH 7.4). The suspensions were heated at 65 °C for GNF and 80°C for the compounds 17 and 20. The GNF solution was incubated at 37 °C for 30 min to form a gel, whereas the other molecules formed the gel within 5 min.
Hydrogels were also prepared from compound A, which was used as a control.
Hydrogel disks (100 µl) were prepared and were incubated in 7 ml of PBS 1X at 37°C for 21 days. All the hydrogel samples were weighed before incubating with the phosphate buffer (initial weight). The samples were removed at different time points (1, 2, 3, 5, 7, 15, and 21 days), weighed immediately after removing the excess of PBS by gently touching the surface of a tissue (Kimwipes™) and put back in the same solution of PBS.
The degradation was monitored by measuring the weight loss of the gels after different periods of incubation. After 3 weeks at 37°C, the remaining weights were 65 ± 4 %, 63 ± 1 %, and 55 ± 2 %, for GNF, compound 17 and compound 20, respectively, as shown on Figure 3..

[4] = MALDI-TOF analysis of degradation products released by the hydrogels in PBS; conditions: hydrogel, 21-day incubation in PBS at 37°C, MALDI-TOF of the buffer
Method: The degradation products generated during the 21-day incubation of the samples was determined by analyzing the PBS solution in which they were incubated. At day 21 the PBS was collected and analyzed for the degradation products of individual hydrogels by using mass spectroscopy. Studies, performed in triplicates, allowed for the calculation of degradation kinetics.
In order to assess the fragmentation of the molecules during incubation, the by-products of degradation present in the buffer were analysed by MALDI-TOF (Matrix Assisted Laser Desorption Ionization - Time of Flight) mass spectrometry at the end of the experiment (21 days) (Figures 4 and 5).
The analyses were carried out on the MALDI-TOF-TOF Ultraflex (Bruker) in positive reflector mode (detection of positively charged species in the form of [M + H] + and [M + Na] + ions).The external calibration of the spectrometer was carried out with a mixture of components in the mass range m / z 700-2500. The matrix used is a solution of 2,4,6 trihydroxyacetophenone at 20 mg / ml in EtOH / NH4 citrate 25 mM. The samples were diluted by a factor of 50 in water before MS analysis.

For “1,14-bis-tetradecanyl-5'-[(4-methylamide)-1H-1,2,3-triazol-1-yl]-N-3-[1-((β-D-glucopyranoside)-1H-1,2,3-triazole-4-yl)methyl]-5'-deoxy thymidine [compound 20]”, which “toxicity to the vital organs” value [1] is on record?
The value was “did not show any toxicity to the vital organs”.

What about the “numbers of blood vessels (bv) in the vicinity of the hydrogel” value (blood vessels) of the same compound?
The value was 7.95 ± 0.74 bv/0.2 mm2.

With `Cc1cn([C@H]2C[C@H](O)[C@@H](CO)O2)c(=O)n(Cc2cn([C@@H]3O[C@H](CO)[C@@H](O)[C@H](O)[C@H]3O)nn2)c1=O` [GN-1, N-3-[1-((β-D-Glucopyranoside)-1H-1,2,3-triazol-4-yl)methyl] thymidine] as the compound, how does the sprouting ([2]; p = 0.0046 (Fisher's exact test)) read?
The sprouting was “more CAMs that were treated with GN-1 exhibited sprouting and tortuous vessels”.

And the tortuous vessels ([2]; p = 0.0195 (Fisher's exact test))?
The tortuous vessels was “more CAMs that were treated with GN-1 exhibited sprouting and tortuous vessels”.

What does the source list for `Cc1cn([C@H]2C[C@H](O)[C@@H](Cn3cc(CNC(=O)CCC(F)(F)C(F)(F)C(F)(F)C(F)(F)C(F)(F)C(F)(F)C(F)(F)C(F)(F)F)nn3)O2)c(=O)n(Cc2cn([C@@H]3O[C@H](CO)[C@@H](O)[C@H](O)[C@H]3O)nn2)c1=O` [GNF]?
remaining weights [3]: 65 ± 4%; toxicity to the vital organs [1]: did not show any toxicity to the vital organs; numbers of blood vessels (bv) in the vicinity of the hydrogel (blood vessels): 6.10 ± 1.07 bv/0.2 mm2; fragmentation of the molecules during incubation (degradation products) [4]: fragmentations of the hydrogel molecules as a result of degradation

Which “toxicity to the vital organs” value [1] does the source give for `Cc1cn([C@H]2C[C@H](O)[C@@H](Cn3cc(CNC(=O)NCCCCCCCCCCCCNC(=O)NCc4cn(C[C@H]5O[C@@H](n6cc(C)c(=O)n(Cc7cn([C@@H]8O[C@H](CO)[C@@H](O)[C@H](O)[C@H]8O)nn7)c6=O)C[C@@H]5O)nn4)nn3)O2)c(=O)n(Cc2cn([C@@H]3O[C@H](CO)[C@@H](O)[C@H](O)[C@H]3O)nn2)c1=O` [compound 17, 1,12-bis-dodecanyl-5'-[(4-methylurea)-1H-1,2,3-triazol-1-yl]-N-3-[1-((β-D-glucopyranoside)-1H-1,2,3-triazole-4-yl)methyl]-5'-deoxy thymidine] here?
Its value is “did not show any toxicity to the vital organs”.

And the “numbers of blood vessels (bv) in the vicinity of the hydrogel” value (blood vessels)?
Its value is 4.30±0.41 bv/0.2 mm2.

What about the “fragmentation of the molecules during incubation (degradation products)” value [4] of the same compound?
The value was “fragmentations of the hydrogel molecules as a result of degradation”.

Reference: patent EP3871678A1, “PRO-ANGIOGENIC COMPOUNDS” (UNIVERSITE DE BORDEAUX, priority 2020, dated 2021)
